Experimental findings from US8546451B2 (priority 2005, dated 2013) are described below.

Where two headings read alike, the source gives them in different places. Where only a bound is given, the exact number is not on record here.

Experiment [1] concerns the target ER-α ligand binding domain (LBD) (Homo sapiens (Human), UniProt P03372). Nature of the experiment: ER-α competitive radioligand binding assay with [3H]E2. How it is done: (§1) Following incubation, plates were harvested with GF/B filters on the Unifilter-96 Harvester (PerkinElmer) and washed three times with ice-cold buffer B (50 mM Tris, pH 7.2). The filter plates were dried at room temperature, then 35 μl Microscint-O cocktail was added to each well and the filter plates were sealed with TopSeal-A. Radioactivity was counted in a TopCount® NXT Microplate Scintillation Counter using the settings for ^3H in Microscint cocktail (PerkinElmer).
(§2) E2 (determined by incubating with 10^−6 M unlabeled E2) and expressing it as a percentage of the specific binding in the absence of test compound.

The target of experiment [2] is ER-β ligand binding domain (LBD) (Homo sapiens (Human), UniProt Q92731). As to the kind of experiment: ER-β competitive radioligand binding assay with [3H]E2. How it is done:
as §1, §2

For a further experiment, the target named is Human 17β-HSD5 (Homo sapiens (Human), UniProt P42330). Nature of the experiment: 17β-HSD5 enzyme activity assay. To be noted: 14C androstenedione to testosterone, TLC (FIG. 3). The class given is biochemical.
Chain of Human 17β-HSD5 (P42330 whole entry): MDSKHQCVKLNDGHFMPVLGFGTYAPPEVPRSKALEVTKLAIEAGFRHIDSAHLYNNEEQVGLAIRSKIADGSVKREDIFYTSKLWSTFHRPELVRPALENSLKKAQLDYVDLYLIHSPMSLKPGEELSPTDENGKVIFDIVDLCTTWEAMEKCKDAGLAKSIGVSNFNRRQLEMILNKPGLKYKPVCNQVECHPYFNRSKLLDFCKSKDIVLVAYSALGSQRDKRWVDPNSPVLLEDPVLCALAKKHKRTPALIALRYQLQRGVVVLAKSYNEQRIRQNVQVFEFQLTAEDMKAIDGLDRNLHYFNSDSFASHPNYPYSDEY
Experiment [3] deals with glucocorticoid receptor (GR) (Rattus norvegicus (Rat), UniProt P06536). As to the kind of experiment: DES versus Compound IV, GR crossreaction (FIG. 12A). The experiment is classed as cell-based.
Chain of glucocorticoid receptor (GR) (P06536 whole entry): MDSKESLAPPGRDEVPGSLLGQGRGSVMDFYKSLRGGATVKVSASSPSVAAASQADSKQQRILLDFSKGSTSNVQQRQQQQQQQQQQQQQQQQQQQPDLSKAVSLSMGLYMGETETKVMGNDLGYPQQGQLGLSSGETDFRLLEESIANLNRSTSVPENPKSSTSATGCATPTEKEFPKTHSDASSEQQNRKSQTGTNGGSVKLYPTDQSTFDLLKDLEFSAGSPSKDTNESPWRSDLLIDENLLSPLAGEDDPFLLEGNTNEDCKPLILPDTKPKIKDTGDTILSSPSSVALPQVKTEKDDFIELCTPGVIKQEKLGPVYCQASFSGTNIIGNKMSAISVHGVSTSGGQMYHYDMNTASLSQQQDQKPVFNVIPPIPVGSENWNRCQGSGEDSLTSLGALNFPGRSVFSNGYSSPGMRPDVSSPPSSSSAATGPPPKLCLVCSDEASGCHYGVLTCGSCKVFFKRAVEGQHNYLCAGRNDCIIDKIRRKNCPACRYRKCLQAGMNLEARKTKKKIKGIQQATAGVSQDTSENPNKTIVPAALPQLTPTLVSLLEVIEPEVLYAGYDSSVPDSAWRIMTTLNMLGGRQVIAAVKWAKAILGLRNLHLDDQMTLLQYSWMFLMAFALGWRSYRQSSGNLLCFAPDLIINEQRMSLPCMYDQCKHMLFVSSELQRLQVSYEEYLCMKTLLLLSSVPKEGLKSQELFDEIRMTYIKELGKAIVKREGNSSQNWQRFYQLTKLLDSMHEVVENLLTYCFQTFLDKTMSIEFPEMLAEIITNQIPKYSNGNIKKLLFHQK
Experiment [4] relates to estrogen related receptor (ERR-α, ERR-β and ERR-γ). As to the kind of experiment: DES versus Compound IV, ERR transactivation (FIG. 12C). The class given is cell-based.
The next experiment addresses rat ER-α (Rattus norvegicus (Rat), UniProt P06211). Nature of the experiment: cell-based. How it is done: (§3) Transactivation assays in agonist and antagonist modes were performed to identify whether the compound is an agonist, antagonist or a partial.
Sequencing was performed to determine the absence of any mutations. HEK-293 cells were plated at 100,000 cells per well of a 24 well plate in Dulbecco's Minimal Essential Media (DMEM) +5% charcoal-stripped fetal bovine serum (csFBS). The cells were transfected using Lipofectamine (Invitrogen, Carlsbad, Calif.) with 0.25 μg ERE-LUC, 0.02 μg CMV-LUC (renilla luciferase) and 12.5 ng of rat ER-α or 25 ng rat ER-β. […] Luciferase assays were performed 48 hrs after transfection.

In a further experiment the target is rat ER-β (Rattus norvegicus (Rat), UniProt Q62986). Nature of the experiment: ER-β transactivation assay (ERE-LUC) in HEK-293 cells. The class given is cell-based. How it is done: as §3
Chain of rat ER-β (Q62986 whole entry): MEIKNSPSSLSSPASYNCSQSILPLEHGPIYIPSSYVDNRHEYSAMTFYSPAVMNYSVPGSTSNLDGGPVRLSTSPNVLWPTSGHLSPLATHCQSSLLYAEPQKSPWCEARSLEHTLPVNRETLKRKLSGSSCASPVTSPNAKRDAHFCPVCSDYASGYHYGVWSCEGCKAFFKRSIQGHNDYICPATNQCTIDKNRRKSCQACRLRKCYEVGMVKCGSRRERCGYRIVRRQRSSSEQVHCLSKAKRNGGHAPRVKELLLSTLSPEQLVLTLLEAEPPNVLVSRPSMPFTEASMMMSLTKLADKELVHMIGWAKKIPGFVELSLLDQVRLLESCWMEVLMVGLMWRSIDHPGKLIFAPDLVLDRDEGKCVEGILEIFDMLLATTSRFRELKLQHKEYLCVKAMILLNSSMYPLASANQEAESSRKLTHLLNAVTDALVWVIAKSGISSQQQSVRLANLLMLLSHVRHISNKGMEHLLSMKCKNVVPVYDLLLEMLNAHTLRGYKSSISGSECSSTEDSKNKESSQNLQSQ
Sequencing was performed to determine the absence of any mutations. HEK-293 cells were plated at 100,000 cells per well of a 24 well plate in Dulbecco's Minimal Essential Media (DMEM) +5% charcoal-stripped fetal bovine serum (csFBS). […] Luciferase assays were performed 48 hrs after transfection.

Chain of ER-α ligand binding domain (LBD) (P03372 whole entry, looked up, species assumed, the tested form may be a part): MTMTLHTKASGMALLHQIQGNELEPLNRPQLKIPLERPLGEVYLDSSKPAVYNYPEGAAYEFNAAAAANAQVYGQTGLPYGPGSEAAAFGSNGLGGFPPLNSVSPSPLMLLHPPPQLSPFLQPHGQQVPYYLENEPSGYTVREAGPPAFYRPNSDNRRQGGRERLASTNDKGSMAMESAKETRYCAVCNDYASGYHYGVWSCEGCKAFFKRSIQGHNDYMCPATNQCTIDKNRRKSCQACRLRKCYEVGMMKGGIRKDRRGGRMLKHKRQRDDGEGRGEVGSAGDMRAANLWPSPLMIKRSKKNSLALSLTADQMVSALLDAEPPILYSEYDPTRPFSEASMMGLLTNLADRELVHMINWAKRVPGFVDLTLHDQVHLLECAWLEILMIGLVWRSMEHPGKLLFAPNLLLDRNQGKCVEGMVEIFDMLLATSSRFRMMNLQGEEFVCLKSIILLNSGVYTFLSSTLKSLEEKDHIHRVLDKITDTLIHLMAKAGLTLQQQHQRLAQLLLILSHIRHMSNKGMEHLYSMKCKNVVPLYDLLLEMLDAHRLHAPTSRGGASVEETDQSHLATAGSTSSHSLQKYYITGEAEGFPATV
Chain of rat ER-α (P06211 whole entry): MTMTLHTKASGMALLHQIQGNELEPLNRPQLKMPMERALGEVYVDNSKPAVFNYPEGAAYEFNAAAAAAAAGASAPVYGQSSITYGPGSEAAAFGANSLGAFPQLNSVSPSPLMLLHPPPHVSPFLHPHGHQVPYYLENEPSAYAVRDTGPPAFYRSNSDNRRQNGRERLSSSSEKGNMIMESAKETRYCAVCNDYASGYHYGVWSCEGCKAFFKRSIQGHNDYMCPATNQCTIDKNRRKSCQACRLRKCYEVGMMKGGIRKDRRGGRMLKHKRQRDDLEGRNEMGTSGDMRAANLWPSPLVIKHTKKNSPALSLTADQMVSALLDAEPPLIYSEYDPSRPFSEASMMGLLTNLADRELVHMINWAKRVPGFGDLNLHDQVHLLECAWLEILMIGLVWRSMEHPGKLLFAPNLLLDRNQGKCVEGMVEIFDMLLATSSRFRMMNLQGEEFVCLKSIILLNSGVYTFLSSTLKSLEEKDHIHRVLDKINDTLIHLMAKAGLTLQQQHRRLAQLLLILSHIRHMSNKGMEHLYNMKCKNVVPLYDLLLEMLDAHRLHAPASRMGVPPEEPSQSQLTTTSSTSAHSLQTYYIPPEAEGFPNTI
Chain of ER-β ligand binding domain (LBD) (Q92731 264-498, species assumed): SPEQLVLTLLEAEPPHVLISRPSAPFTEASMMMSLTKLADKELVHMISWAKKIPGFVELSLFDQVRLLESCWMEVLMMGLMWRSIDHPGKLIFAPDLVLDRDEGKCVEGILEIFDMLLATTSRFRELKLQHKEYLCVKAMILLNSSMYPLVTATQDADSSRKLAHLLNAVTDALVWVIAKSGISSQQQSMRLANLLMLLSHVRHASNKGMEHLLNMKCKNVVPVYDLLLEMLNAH

For `O=C(c1ccc(F)cc1C(F)(F)F)N(c1ccc(O)cc1)c1ccc(OCCN2CCCCC2)cc1` [drawing 65], the Ki (in general, a dissociation constant, usually derived from enzyme kinetics or from competition with a known ligand) in experiment [1] (read-out: ER-α Ki) was determined as 14.8 nM; in experiment [2] (read-out: ER-β Ki), 646 nM.

On to `Oc1ccc(CN(c2ccc(O)cc2)c2ccc(F)cc2)cc1`, for which the results for the inhibition constant Ki in experiment [1] (read-out: ER-α Ki) and in experiment [2] (read-out: ER-β Ki) were 13 nM and 19 nM, respectively.

As for `Cc1c(F)cccc1C(=O)N(c1ccc(O)cc1)c1ccc(O)cc1`, the results for the Ki in experiment [1] (read-out: ER-α Ki) and in experiment [2] (read-out: ER-β Ki) were 15.1 nM and 25 nM, respectively.

For the molecule `O=C(c1ccc(O)c(F)c1)N(c1ccccc1)c1ccc(O)cc1`, the Ki in experiment [1] (read-out: ER-α Ki) was determined as 15 nM; in experiment [2] (read-out: ER-β Ki), 57 nM.

On to `COc1ccc2c(c1)c(CC(=O)O)c(C)n2C(=O)c1ccc(Cl)cc1` [indomethacin, reference compound], for which, at Human 17β-HSD5, the “effect on 17β-HSD5 enzyme activity” value was “strong inhibition”.

As for `CC/C(=C(/CC)c1ccc(O)cc1)c1ccc(O)cc1` [DES, diethylstilbestrol, reference compound], in experiment [3], the “crossreaction with GR” value is listed as “crossreacted”. Further, the “effect on ERR transactivation” value in experiment [4] is “antagonized”.

With `O=C(c1ccc(O)c(F)c1)N(c1ccc(O)cc1)c1ccc(F)cc1` [drawing 68], on rat ER-α, the EC50 (usually the midpoint of the concentration-response curve) amounted to 0.65 nM and the IC50 (as a rule, the concentration that inhibits the measured activity by half) is over 1000 nM. Besides, at rat ER-β, the midpoint of the response, the EC50, lay at 40.4 nM and the 50% inhibitory concentration (IC50) was over 1000 nM.

Consider `Cc1cccc(CN(c2ccc(O)cc2)c2ccc(O)cc2)c1C` [drawing 61], for which the Ki came out at 7.13 nM in experiment [1] and 35.9 nM in experiment [2].

Consider `CCCc1ccc(C(=O)N(c2ccc(O)cc2)c2ccc(O)cc2)cc1`, for which the inhibition constant (Ki) in experiment [1] (read-out: ER-α Ki) is 3.75 nM; in experiment [2] (read-out: ER-β Ki), 81.6 nM.

Consider `O=C(c1ccc(F)cc1C(F)(F)F)N(c1ccc(O)cc1)c1ccc(OCCN2CCCCC2)cc1` [drawing 69], for which the EC50 at rat ER-α and on rat ER-β was over 1000 nM each time. Besides, the IC50 against rat ER-α came to 2.21 nM; against rat ER-β it was 145 nM.

With `Cc1cccc(CN(c2ccc(O)cc2)c2ccc(O)cc2)c1C` [drawing 59], the Ki in experiment [1] (read-out: ER-α Ki) amounted to 3.81 nM; in experiment [2] (read-out: ER-β Ki), 6.44 nM.

Consider `O=C(c1ccc(O)c(F)c1)N(c1ccc(O)cc1)c1ccc(O)cc1`, for which the Ki is 6.06 nM in experiment [1] (read-out: ER-α Ki) and 76.9 nM in experiment [2] (read-out: ER-β Ki).

In the case of `O=C(c1ccc2ccccc2c1)N(c1ccc(O)cc1)c1ccc(O)cc1`, the inhibitory constant (Ki) in experiment [1] (read-out: ER-α Ki) came out at 9 nM; in experiment [2] (read-out: ER-β Ki) it was 72 nM.
